According to patent US9233161B2, “Compositions and methods for the treatment of neurological conditions” (CELLIX BIO PRIVATE LIMITED, priority 2012, dated 2016):

Tested on: Rat Model of Neuropathic Pain
Assay: Mechanic pain test (Randall-Sellitio method) in a rat model of neuropathic pain (loose ligation of the right sciatic nerve)
Format: in vivo
Settings: i.p., 40, 60 mg/kg equivalent of milnacipran, 15 days after surgery, tested for 2 h every 30 min, compared with milnacipran
Procedure: The Effect of Milnacipran and Formula I (1-1) on Nociception in a Rat Model of Neuropathic Pain
After the preoperative pain thresholds of rats determined by mechanic pain test (Randall-Sellitio method), peripheric neuropathy was formed by loose ligating the right sciatic nevre. An identical procedure was performed without ligating on the left side (sham-operation). 15 days after surgical procedure postoperative pain thresholds were determined and saline and drugs were administered via intraperitoneal (i.p) route. Drugs groups were planned as milnacipran (40, 60, 80 mg/kg), Formula I (1-1) (20, 40, 60 mg/kg equivalent of milnacipran), After saline and drug injection, the test was repeated for 2 h in every 30 min. Pain thresholds were given as mean, SEM from % values. Spontaneous locomotor activity was measured by an activity cage and movements were quantified as the total of ambulatory and stereotypic behaviour. Statistical evaluation was made with one way variance analysis (ANOVA) followed by LSD test.

## CCN(CC)C(=O)[C@]1(c2ccccc2)CC1CNC(=O)CCCC[C@]1(C)CCSS1 (stereo partly shown) [Formula I (1-1)]
  antinociceptive effect (pain thresholds): more potent antinociceptive effect
